# Data from ChEMBL document CHEMBL5143523, “Construction and activity evaluation of novel benzodioxane derivatives as dual-target antifungal inhibitors” (Eur J Med Chem, 2022).
# Activity calls are given as the source filed them. The rule behind the calls is not given here.
# What was measured:
# [1] = test system: Candida albicans; test: Induction of morphological changes in Candida albicans assessed as decrease in osmotic pressure of cells at 4 ug/ml measured after 72 hrs by TEM analysis; type: functional, organism-based; conditions: dose 4.0 µg/ml
# [2] = test system: Mus musculus; test: In vivo antifungal activity against Candida albicans ATCC SC5314 infected mouse assessed as regular arrangement of endothelial tissue at 4 mg/kg, ip administered ever other day for 12 days by hematoxyin-eosin staining based microscopic analysis; type: functional, organism-based; conditions: time 12.0 day
# [3] = test system: Candida albicans; test: Antifungal activity against Candida albicans ATCC 10231 assessed as fungal growth inhibition measured after 72 hrs by CLSI protocol based liquid medium dilution method; type: functional
# [4] = Toxicity in mouse infected with Candida albicans ATCC SC5314 assessed as pathological changes in liver at 4 mg/kg, ip administered ever other day for 12 days by hematoxylin and eosin staining based histopathological analysis; type: organism-based; conditions: in vivo, 288 h, time 12 day
# [5] = target: Lanosterol 14-alpha demethylase (Candida albicans (strain SC5314 / ATCC MYA-2876) (Yeast), UniProt P10613); test: Inhibition of CYP51 in Candida albicans ATCC SC5314 incubated for 30 mins using eburicol as substrate in presence of NADPH by HPLC analysis
# Chain of Lanosterol 14-alpha demethylase (P10613 whole entry): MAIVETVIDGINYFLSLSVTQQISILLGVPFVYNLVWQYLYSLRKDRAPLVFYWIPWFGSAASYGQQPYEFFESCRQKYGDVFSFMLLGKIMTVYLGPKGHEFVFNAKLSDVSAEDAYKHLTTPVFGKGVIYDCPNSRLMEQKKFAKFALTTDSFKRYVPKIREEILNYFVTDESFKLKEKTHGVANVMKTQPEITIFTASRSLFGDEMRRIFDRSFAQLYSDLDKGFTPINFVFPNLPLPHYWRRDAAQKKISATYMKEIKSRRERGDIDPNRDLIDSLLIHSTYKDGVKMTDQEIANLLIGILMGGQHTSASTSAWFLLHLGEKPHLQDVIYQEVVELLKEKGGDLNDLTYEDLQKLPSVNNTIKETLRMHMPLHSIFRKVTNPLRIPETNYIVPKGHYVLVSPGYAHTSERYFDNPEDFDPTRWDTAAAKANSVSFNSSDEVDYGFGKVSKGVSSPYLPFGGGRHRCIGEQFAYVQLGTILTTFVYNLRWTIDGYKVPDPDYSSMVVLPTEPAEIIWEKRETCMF
# [6] = Toxicity in mouse infected with Candida albicans ATCC SC5314 assessed as pathological changes in spleen at 4 mg/kg, ip administered ever other day for 12 days by hematoxylin and eosin staining based histopathological analysis; type: organism-based; conditions: in vivo, 288 h, time 12 day
# [7] = Drug uptake in fluconazole resistant Candida albicans strain 901 at 4 ug/ml by fluorescence microscopy; type: ADME; conditions: dose 4 µg/ml
# [8] = test system: Candida albicans; test: Antifungal activity against Candida albicans ATCC SC5314 assessed as change in lanosterol level at 4 ug/ml incubated for 48 hrs by LC-MS analysis (reference value: 3.7%); type: functional; conditions: dose 4 µg/ml
# [9] = test system: Candida albicans; test: Antifungal activity against Candida albicans ATCC SC5314 assessed as decrease in ergosterol content at 4 ug/ml incubated for 48 hrs by LC-MS analysis (reference value: 90.6%); type: functional; design: scale not given: the % may be the effect or the level left; conditions: dose 4 µg/ml
# [10] = test system: Candida albicans; test: Induction of apoptosis in Candida albicans ATCC SC5314 cells assessed as early apoptotic cells at 8 ug/ml incubated for 72 hrs by Annexin V-FITC/PI staining based flow cytometry method (reference value: 0.56%); type: functional; conditions: dose 8 µg/ml
# [11] = Nephrotoxicity in mouse infected with Candida albicans ATCC SC5314 assessed as change in plasma BUN level at 4 mg/kg, ip administered ever other day for 12 days; type: toxicity, organism-based; conditions: in vivo, 288 h, time 12 day
# [12] = test system: Candida albicans; test: Induction of morphological changes in Candida albicans assessed as structural damage in fungal cell membrane at 4 ug/ml measured after 48 hrs by TEM analysis; type: functional, organism-based; conditions: dose 4.0 µg/ml
# [13] = test system: Mus musculus; test: In vivo antifungal activity against Candida albicans ATCC SC5314 infected mouse model assessed as reduction in nuclear aggregation at 4 mg/kg, ip administered ever other day for 12 days by hematoxyin-eosin staining based microscopic analysis; type: functional, organism-based; conditions: time 12.0 day
structure (smiles),measurement,setting,value
CC(C)[C@H](NC(=O)c1cccc2c1OCCO2)C(=O)N[C@@H](Cn1cncn1)c1ccccc1,Activity,[1],Active
same,Activity,[2],Active
same,MIC50,[3],0.125 µg/mL
same,Activity,[4],Non-Toxic
same,IC50,[5],220 nM
same,Activity,[6],Non-Toxic
same,Drug uptake,[7],Active
same,Activity,[8],16.4%
same,Activity,[9],20.8%
same,Activity,[10],0.41%
same,Activity,[11],15.8 mmol/L
same,Activity,[12],Active
same,Activity,[13],Active
